From patent publication US8853452B2, “Compounds, their syntheses, compositions, and methods to treat cancer” (The Administrators of the Tulane Educational Fund, priority 2009, dated 2014)
Like-named read-outs stand apart in the source and are kept apart here.

Columns and labels:
MCF-7 cells [1] = experiment: Apoptosis ELISA assay (Cell Death Detection ELISA, Roche); assay type: cell-based, Human; settings: double the IC50 concentration (ceramide 8.3 μM, II-3 9.4 μM)
Procedure: The induction of apoptosis by compounds was assayed using the nucleosome ELISA kit (Roche). The kit quantified formation of cytoplasmic histone-associated oligonucleosome DNA fragments resulting from apoptosis. […] The induction of apoptosis was determined by the amount of nucleosomes in the cytoplasm per the manufacturer's protocol. The values are the mean±SE of three independent experiments.
The ability of compound II-3 to induce apoptosis in MCF-7 cells was tested. Using a Cell Death Detection ELISA (Roche) to assess apoptosis, IC50 was measured for compound II-3 and C8-ceramide.

MCF-7 cell line = experiment: Proliferation assay; assay type: cell-based; settings: Homo sapiens, MCF7; FIG. 15; read-out: anti-proliferative IC50, MCF-7
Procedure: (§1) The ability of compound II-3 to block proliferation as an anti-survival mechanism in addition to apoptosis was determined by measuring anti-proliferative effects.

MDA-MB-231 cell line = experiment: Proliferation assay; assay type: cell-based; settings: Homo sapiens, FIG. 16, read-out: anti-proliferative IC50, MDA-MB-231
Procedure: as §1

[2] = test system: MCF10A (normal breast epithelial) cells; experiment: Proliferation assay in normal breast epithelial cells; assay type: cell-based; settings: for effect on normal breast epithelial proliferation: MCF10A, even at 100 μM, 24 h
Procedure: MCF10A cells were treated with varying concentrations of drug (0.1-100 μM) for 24 h. The values are the mean±SE of four independent experiments.
The selectivity of compound II-3 and C8-ceramide to inhibit cell growth of cancer cells was determined by performing proliferation assays using MCF10A (normal breast epithelial) cells (FIG. 18).

MCF-7TN-R cells [3] = experiment: Proliferation assay; assay type: cell-based; settings: Homo sapiens; FIG. 17; read-out: anti-proliferative IC50, MCF-7TN-R
Procedure: as §1
Nineteen compounds were synthesized using fifteen benzaldehydes as starting material. […] These were tested as potential anti-proliferative agents in MCF-7TN-R cells, and the structure-activity relationships were studied using several parameters. […] In compounds containing a methyl group, a significant increase of the PAC (C) in o-substituted compound was detected, which may account for the increased anti-proliferation activity. Ortho-substituted analogs with electron withdrawing groups by induction can have beneficial effects, and PAC (C) can be a useful predictor of the structural property of the molecule.

MCF-7 cells [4] = experiment: Clonogenic survival assay; assay type: cell-based, Human; settings: Table 2, 0.1 μM-20 μM for 10 days, read-out: MCF-7 (IC50), clonogenic survival
Procedure: (§2) Human cancer cell lines derived from breast, MCF-7, endocrine-resistant MDA-MB-231, and chemoresistant MCF-7TN-R were cultured in 75 cm^2 culture flasks in DMEM (Invitrogen, Co.) supplemented with 10% FBS (Life Technologies, Inc., Gaithersburg, Md.), basic minimum MEM essential (50×, Invitrogen Co.) and MEM non-essential (100×, Invitrogen, Co.) amino acids, sodium pyruvate (100× Invitrogen Co.), antimicotic-antibiotic (10,000 U/mL penicillin G sodium; 10,000 μg/mL streptomycin sulphate; 25 μg/mL amphotericin B as Fungizone®), and human recombinant insulin (4 mg/mL Invitrogen Co). Culture flasks were maintained in a tissue culture incubator in a humidified atmosphere of 5% CO2 and 95% air at 37° C.
(§3) MCF-7, MDA-MB-231, or MCF-7TN-R cells were plated in 6-well plates at 1000 cells per well. Twenty-four hours later, cells were treated with varying concentrations of the compound and then monitored microscopically for colony growth. Ten days later the cells were fixed with 3% glutaraldehyde. Following fixation for 15 min, the plates were washed and stained with a 0.4% solution of crystal violet in 20% methanol for 30 min, washed with PBS, and air-dried. Colonies of 30 cells were counted as positive. Results are normalized to percent clonogenic survival from untreated control cells. Statistical analysis of IC50 values were calculated from concentration-response curves using GraphPad Prism 5.0 (Graphpad Software, San Diego, Calif.), using with the equation: Y=Bottom+(Top−bottom)/1+10 Log EC50−X.
(§4) Compounds II-1, II-2, II-3, II-4, II-5, and II-6 were compared for their inhibitory effect on breast cancer clonogenic survival. Cells were treated with varying concentration of compound, ranging from 0.1 μM-20 μM for 10 days. […] At endpoint, cell colonies were fixed, stained and recorded as percent vehicle control.

MCF-7TN-R cells [5] = experiment: Clonogenic survival assay; assay type: cell-based, Human; settings: Table 2, 0.1 μM-20 μM for 10 days, read-out: MCF-7-TNR (IC50), clonogenic survival
Procedure: as §2, §3, §4

MDA-MB-231 cells [6] = experiment: Clonogenic survival assay; assay type: cell-based, Human; settings: Table 2, 0.1 μM-20 μM for 10 days, read-out: MDA-MB-231 (IC50), clonogenic survival
Procedure: as §2, §3, §4

MCF-7 cells [7] = experiment: Cellular sphingolipid species by lipidomics analysis; assay type: cell-based, Human; settings: 10 μM, 24 h
Procedure: (§5) (A) MCF-7, (B) MDA-MB-231, and (C) MCF-7TN-R cells were treated with ceramide (10 μM) and II-3 (10 μM) for 24 h. The values are the mean±SE of two independent experiments. S2 Endogenous lipid levels were quantified by mass spectrometry (Lipidomics Core, Medical University of South Carolina) according to published methods. Briefly, cells were collected, fortified with internal standards and extracted with ethyl acetate/isopropyl alcohol. ESI/MS/MS analyses of sphingoid bases, sphingoid base 1-phosphates, ceramides, and sphingomyelins were performed on a Thermo Finnigan TSQ 7000 triple quadrupole mass spectrometer.
(§6) The effect of compound II-3 on endogenous sphingolipid levels was compared to C8-ceramide using Lipidomics Analysis (FIG. 19-21). Dihydrosphingosine is elevated following compound II-3 treatment, with almost a 50 fold increase in MCF-7TN-R cells. Sphingosine-1-phosphate, the proliferative metabolite of ceramide, decreased in all three cell lines. C8-ceramide had the opposite effect and increased sphingosine-1-phosphate levels.

MCF-7TN-R cells [8] = experiment: as above; assay type: cell-based, Human; settings: 10 μM, 24 h
Procedure: as §5, §6

MDA-MB-231 cells [9] = experiment: as above; assay type: cell-based, Human; settings: 10 μM, 24 h
Procedure: as §5, §6

Structure (SMILES): CCCCCCCCCCCCCCNC(=O)[C@H](CO)N=Cc1ccccc1 [II-3, (S)-2-(benzylideneamino)-3-hydroxy-N-tetradecylpropanamide]
- fold induction at 9.4 µM (MCF-7 cells [1]; Homo sapiens, MCF7, 24 hours): 5.4
- IC50 (MCF-7 cell line): 4.5 µM
- IC50 (MDA-MB-231 cell line): 1.8 µM
- 100 μM (little effect in MCF10A) as fold of the IC50 value in chemoresistant cells ([2]; MCF10A versus chemoresistant cells): greater than 50 fold
- effect on normal breast epithelial proliferation [2]: little effect
- IC50 (MCF-7TN-R cells [3]): 1.2 µM
- IC50 (MCF-7 cells [4]; Homo sapiens, MCF7, 240 h): 4.69 µM
- IC50 (MCF-7 cells [4]): 4.7 µM
- IC50 (MCF-7TN-R cells [5]; Homo sapiens, 240 h): 7.67 µM
- IC50 (MCF-7TN-R cells [5]): 7.7 µM
- IC50 (MDA-MB-231 cells [6]; Homo sapiens, MDA-MB-231, 240 h): 2.35 µM
- IC50 (MDA-MB-231 cells [6]): 2.4 µM
- Sphingosine-1-phosphate level (MCF-7 cells [7]): decreased
- Dihydrosphingosine fold increase (MCF-7TN-R cells [8]): ~50 fold
- Sphingosine-1-phosphate level (MCF-7TN-R cells [8]): decreased
- Sphingosine-1-phosphate level (MDA-MB-231 cells [9]): decreased

Structure (SMILES): CCCCCCCCCCCCC/C=C/[C@@H](O)[C@H](CO)NC(=O)CCCCCCC [Compound C8-Cer, D-erythro N-octanoyl sphingosine, reference compound]
- fold induction in apoptosis (MCF-7 cells [1]; 24 hours): 5.0 fold
- effect on normal breast epithelial proliferation [2]: little effect
- IC50 (MCF-7 cells [4]): 4.2 µM
- IC50 (MCF-7TN-R cells [5]): 8.6 µM
- IC50 (MDA-MB-231 cells [6]): 3 µM
- Sphingosine-1-phosphate level (MCF-7 cells [7]): increased
- Sphingosine-1-phosphate level (MCF-7TN-R cells [8]): increased
- Sphingosine-1-phosphate level (MDA-MB-231 cells [9]): increased
